# In patent US9580449B2, “Compositions and methods for the production of pyrimidine and pyridine compounds with BTK inhibitory activity” (Merck Patent GmbH, priority 2011, dated 2017):
# Target: full-length human BTK (Homo sapiens (Human), UniProt Q06187)
# Experiment: BTK IC50 enzyme assay (microfluidic off-chip mobility shift kinase assay)
# Format: biochemical
# Conditions: incubated for 90 min. at 27 C; read-out: Time Dependent BTK Enzyme Assay IC50
# How it was run: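 Read-out separates phosphorylated peptide product from substrate by charge/mass in a mobility shift format with full-length human BTK.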
# Sequence of full-length human BTK (Q06187 whole entry): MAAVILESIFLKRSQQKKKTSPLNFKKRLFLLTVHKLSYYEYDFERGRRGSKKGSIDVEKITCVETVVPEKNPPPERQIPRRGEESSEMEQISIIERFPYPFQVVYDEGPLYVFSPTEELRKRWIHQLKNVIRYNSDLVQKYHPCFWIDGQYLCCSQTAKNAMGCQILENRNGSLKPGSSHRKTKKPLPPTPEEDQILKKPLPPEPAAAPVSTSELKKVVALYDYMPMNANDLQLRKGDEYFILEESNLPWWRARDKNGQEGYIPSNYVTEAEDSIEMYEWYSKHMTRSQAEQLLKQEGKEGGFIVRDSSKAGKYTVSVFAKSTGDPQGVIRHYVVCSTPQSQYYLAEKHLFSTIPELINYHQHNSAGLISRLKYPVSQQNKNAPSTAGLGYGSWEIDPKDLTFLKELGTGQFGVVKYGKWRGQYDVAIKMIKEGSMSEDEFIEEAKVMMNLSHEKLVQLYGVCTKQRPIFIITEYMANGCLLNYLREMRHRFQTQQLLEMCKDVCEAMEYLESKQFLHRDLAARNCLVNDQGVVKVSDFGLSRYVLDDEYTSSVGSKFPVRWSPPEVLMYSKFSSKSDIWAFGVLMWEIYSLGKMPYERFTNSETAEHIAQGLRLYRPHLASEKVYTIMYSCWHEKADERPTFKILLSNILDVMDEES
row,SMILES,IC50 [nM]
1,"C=CC(=O)N1CCC2(CCN(c3ncnc(N)c3-c3ccc(Oc4ccccc4)cc3)CC2)C1 [A92, 1-(8-(6-amino-5-(4-phenoxyphenyl)pyrimidin-4-yl)-2,8-diazaspiro[4.5]decan-2-yl)prop-2-en-1-one]",< 1000
2,"C=CC(=O)N1CCC(CNc2ncnc(N)c2-c2ccc(OCc3ccccc3)cc2)C1 (centres unmarked) [A156, 1-(3-(((6-amino-5-(4-(benzyloxy)phenyl)pyrimidin-4-yl)amino)methyl)pyrrolidin-1-yl)prop-2-en-1-one]",< 1000
3,"C=CC(=O)Nc1cncc(Nc2ncnc(N)c2-c2ccc(Oc3ccccc3)cc2)c1 [A186, N-(5-((6-amino-5-(4-phenoxyphenyl)pyrimidin-4-yl)amino)pyridin-3-yl)acrylamide]",< 100
4,"C=CC(=O)Nc1cccc(Oc2ncnc(N)c2-c2ccc(Oc3ccccn3)cc2)c1 [A162, N-(3-((6-amino-5-(4-(pyridin-2-yloxy)phenyl)pyrimidin-4-yl)oxy)phenyl)acrylamide]",< 100
5,"COCCN(C)C/C=C/C(=O)N1CCC(CNc2ncnc(N)c2-c2ccc(Oc3ccccc3)cc2)CC1 [A11, (E)-1-(4-(((6-amino-5-(4-phenoxyphenyl)pyrimidin-4-yl)amino)methyl)piperidin-1-yl)-4-((2-methoxyethyl)(methyl)amino)but-2-en-1-one]",> 1000
6,"Nc1cccc(-c2cnccc2Oc2ccc(Oc3ccccc3)cc2)c1 [A312, 3-(4-(4-phenoxyphenoxy)pyridin-3-yl)aniline]",> 1000
7,"C=CC(=O)Nc1cncc(Oc2ncnc(N)c2-c2cnn(Cc3ccccc3)c2)c1 [A189, N-(5-((6-amino-5-(1-benzyl-1H-pyrazol-4-yl)pyrimidin-4-yl)oxy)pyridin-3-yl)acrylamide]",< 100
8,"CCC(=O)Nc1ccc(Oc2ncnc(N)c2-c2ccc(Oc3ccccc3)cc2)cc1 [A308, N-(4-((6-amino-5-(4-phenoxyphenyl)pyrimidin-4-yl)oxy)phenyl)propionamide]",> 1000
9,"C=CC(=O)Nc1cccc(Oc2ncnc(N)c2-c2ccc(C(C)(C)O)cc2)c1 [A278, N-(3-((6-amino-5-(4-(2-hydroxypropan-2-yl)phenyl)pyrimidin-4-yl)oxy)phenyl)acrylamide]",< 100
10,"C=CC(=O)Nc1cccc(Oc2ccnc(N)c2-c2ccc(OCc3ccccc3)cc2)c1 [A149, N-(3-((2-amino-3-(4-(benzyloxy)phenyl)pyridin-4-yl)oxy)phenyl)acrylamide]",< 1000
11,"CC#CC(=O)[C@H]1CCC[C@@H](Nc2ncnc(N)c2-c2ccc(Oc3ccccc3)cc2)C1 [A147, 1-((1S,3R)-3-(6-amino-5-(4-phenoxyphenyl)-pyrimidin-4-ylamino)-cyclohexyl)-but-2-yn-1-one]",< 100
12,"C/C=C/C(=O)Nc1cccc(-c2cnccc2Oc2ccc(Oc3ccccc3)cc2)c1 [A307, (E)-N-(3-(4-(4-phenoxyphenoxy)pyridin-3-yl)phenyl)but-2-enamide]",> 1000
13,"Nc1ncnc(Oc2cccc(NC(=O)CCl)c2)c1-c1ccc(OCc2cccc(F)c2)cc1 [A345, N-(3-{6-Amino-5-[4-(3-fluoro-benzyloxy)-phenyl]-pyrimidin-4-yloxy}-phenyl)-2-chloro-acetamide]",< 100
14,"CN(C)C/C=C/C(=O)Nc1cccc(-c2c(N)ncnc2Oc2ccc(Oc3ccccc3)cc2)c1 [A248, (E)-N-(3-(4-amino-6-(4-phenoxyphenoxy)pyrimidin-5-yl)phenyl)-4-(dimethylamino)but-2-enamide]",< 100
15,"Nc1cccc(-c2c(Oc3ccc(Oc4ccccc4)cc3)ccnc2N)c1 [A300, 3-(3-aminophenyl)-4-(4-phenoxyphenoxy)pyridin-2-amine]",< 1000
16,"CC=CC(=O)[C@H]1CCC[C@@H](Nc2ncnc(N)c2-c2ccc(Oc3ccccc3)cc2)C1 [A146, 1-((1S,3R)-3-(6-Amino-5-(4-phenoxyphenyl)-pyrimidin-4-ylamino)-cyclohexyl)-but-2-en-1-one]",< 100
17,"C=CC(=O)N1CCC(CNc2ncnc(N)c2-c2ccc(Oc3ccncc3)cc2)CC1 [A97, 1-(4-(((6-amino-5-(4-(pyridin-4-yloxy)phenyl)pyrimidin-4-yl)amino)methyl)piperidin-1-yl)prop-2-en-1-one]",< 1000
18,"Nc1ncnc(Oc2ccc(Oc3ccccc3)cc2)c1-c1cccc(NC(=O)/C=C/CN2CCOCC2)c1 [A274, (E)-N-(3-(4-amino-6-(4-phenoxyphenoxy)pyrimidin-5-yl)phenyl)-4-morpholinobut-2-enamide]",< 100
19,"Nc1ncnc(Oc2cccc(N3CC=CC3=O)c2)c1-c1ccc(Oc2ccccc2)cc1 [A40, 1-(3-((6-amino-5-(4-phenoxyphenyl)pyrimidin-4-yl)oxy)phenyl)-1H-pyrrol-2(5H)-one]",< 1000
20,"CC#CC(=O)c1cccc(CNc2ncnc(N)c2-c2ccc(Oc3ccccc3)cc2)c1 [A141, 1-(3-((6-Amino-5-(4-phenoxyphenyl)-pyrimidin-4-ylamino)-methyl)-phenyl)-but-2-yn-1-one]",< 1000
21,"C=CC(=O)N1CC2(CC(Nc3ncnc(N)c3-c3cnn(Cc4ccccc4)c3)C2)C1 [A107, 1-(6-((6-amino-5-(1-benzyl-1H-pyrazol-4-yl)pyrimidin-4-yl)amino)-2-azaspiro[3.3]heptan-2-yl)prop-2-en-1-one]",< 1000

row,SMILES,IC50 [nM]
1,"C=CC(=O)Nc1cccc(Oc2ncnc(N)c2-c2ccc(Oc3ccccc3)nc2)c1 [A268, N-(3-((6-amino-5-(6-phenoxypyridin-3-yl)pyrimidin-4-yl)oxy)phenyl)acrylamide]",< 100
2,"CN(C)C/C=C/C(=O)N1C2CCC1CC(CNc1ncnc(N)c1-c1ccc(Oc3ccccc3)cc1)C2 (centres unmarked) [A71, (E)-1-(3-(((6-amino-5-(4-phenoxyphenyl)pyrimidin-4-yl)amino)methyl)-8-azabicyclo[3.2.1]octan-8-yl)-4-(dimethylamino)but-2-en-1-one]",< 1000
3,"C=CC(=O)N1CCO[C@@H](COc2ncnc(N)c2-c2ccc(Oc3ccccc3)cc2)C1 [A66, (R)-1-(2-(((6-amino-5-(4-phenoxyphenyl)pyrimidin-4-yl)oxy)methyl)morpholino)prop-2-en-1-one]",< 100
4,"C=CC(=O)N1CCC(CNc2ncnc(N)c2-c2ccc(Oc3ccccc3)cc2)(C(=O)O)CC1 [A216, 1-acryloyl-4-(((6-amino-5-(4-phenoxyphenyl)pyrimidin-4-yl)amino)methyl)piperidine-4-carboxylic acid]",< 100
5,"C#CC(=O)N1CC[C@H](CNc2ncnc(N)c2-c2ccc(Oc3ccccc3)cc2)C1 [A61, (R)-1-(3-(((6-amino-5-(4-phenoxyphenyl)pyrimidin-4-yl)amino)methyl)pyrrolidin-1-yl)prop-2-yn-1-one]",< 100
6,"C=CC(=O)N1CCCC(Nc2ncnc(N)c2-c2ccc(OCc3ccccc3)cc2)C1 (centres unmarked) [A269, 1-(3-((6-amino-5-(4-(benzyloxy)phenyl)pyrimidin-4-yl)amino)piperidin-1-yl)prop-2-en-1-one]",< 100
7,"C=CC(=O)Nc1cccc(Oc2ncnc(N)c2-c2cnn(Cc3ccccc3C#N)c2)c1 [A194, N-(3-((6-amino-5-(1-(2-cyanobenzyl)-1H-pyrazol-4-yl)pyrimidin-4-yl)oxy)phenyl)acrylamide]",< 100
8,"C=CC(=O)N1CCC(CNc2ncnc(N)c2-c2ccc3c(c2)OCCO3)CC1 [A84, 1-(4-(((6-amino-5-(2,3-dihydrobenzo[b][1,4]dioxin-6-yl)pyrimidin-4-yl)amino)methyl)piperidin-1-yl)prop-2-en-1-one]",> 1000
9,C=CC(=O)N1CCC(CNc2ncnc(N)c2-c2ccc(Oc3ccc(F)cc3)cc2)CC1 [A80],< 1000
10,"CC#CC(=O)Nc1cccc(Oc2ccnc(N)c2-c2ccc(Oc3ccccc3)cc2)c1 [A340, N-(3-((2-amino-3-(4-phenoxyphenyl)pyridin-4-yl)oxy)phenyl)but-2-ynamide]",< 100
11,"C=CC(=O)N1CCC(O)(CNc2ncnc(N)c2-c2ccc(Oc3cccc(C(F)(F)F)c3)cc2)CC1 [A169, 1-(4-(((6-amino-5-(4-(3-(trifluoromethyl)phenoxy)phenyl)pyrimidin-4-yl)amino)methyl)-4-hydroxypiperidin-1-yl)prop-2-en-1-one]",< 100
12,"CCC(=O)Nc1cccc(-c2c(Oc3ccc(Oc4ccccc4)cc3)ccnc2N)c1 [A310, N-(3-(2-amino-4-(4-phenoxyphenoxy)pyridin-3-yl)phenyl)propionamide]",> 1000
13,"C=CC(=O)N1CCC[C@@H](Nc2ncnc(N)c2-c2cnn(Cc3ccccc3)c2)C1 [A180, (R)-1-(3-((6-amino-5-(1-benzyl-1H-pyrazol-4-yl)pyrimidin-4-yl)amino)piperidin-1-yl)prop-2-en-1-one]",< 1000
14,"C=CC(=O)Nc1cccc(Oc2ncnc(N)c2-c2ccc(OCc3ccccc3OC)cc2)c1 [A254, N-(3-((6-amino-5-(4-((2-methoxybenzyl)oxy)phenyl)pyrimidin-4-yl)oxy)phenyl)acrylamide]",< 100
15,"NCc1ccc(-c2cnccc2Oc2ccc(Oc3ccccc3)cc2)cc1 [A315, (4-(4-(4-phenoxyphenoxy)pyridin-3-yl)phenyl)methanamine]",> 1000
16,"C=CC(=O)N1CCC(Nc2ncnc(N)c2-c2ccc(Oc3ccccc3)cc2)CC1 [A299, 1-(4-((6-amino-5-(4-phenoxyphenyl)pyrimidin-4-yl)amino)piperidin-1-yl)prop-2-en-1-one]",> 1000
17,"C=CC(=O)N1CCO[C@H](COc2ncnc(N)c2-c2cnn(Cc3ccccc3)c2)C1 [A193, (S)-1-(2-(((6-amino-5-(1-benzyl-1H-pyrazol-4-yl)pyrimidin-4-yl)oxy)methyl)morpholino)prop-2-en-1-one]",> 1000
18,"C=CC(=O)N1CCCC(Nc2nc(N)ncc2-c2ccc(Oc3ccccc3)cc2)C1 (centres unmarked) [A150, 1-(3-((2-amino-5-(4-phenoxyphenyl)pyrimidin-4-yl)amino)piperidin-1-yl)prop-2-en-1-one]",< 1000
19,"C=CC(=O)Nc1cccc(Oc2ncnc(N)c2-c2cncc(OC)c2)c1 [A291, N-(3-((6-amino-5-(5-methoxypyridin-3-yl)pyrimidin-4-yl)oxy)phenyl)acrylamide]",< 1000
20,"C=CC(=O)Nc1cccc(Oc2ccncc2-c2ccc(Oc3ccccc3)cc2)c1 [A270, N-(3-((3-(4-phenoxyphenyl)pyridin-4-yl)oxy)phenyl)acrylamide]",< 100
